Laboratory results reported in patent US11149033B2, “Heteroaryl compound, enantiomer, diastereomer or pharmaceutically acceptable salt thereof, and antiviral composition containing same as active ingredient” (priority 2016, dated 2021).

Legend:
A/Perth/16/2009 (H3N2) = experiment: Antiviral activity (drug efficacy evaluation by concentration) against A/Perth/16/2009 (H3N2); type: cell-based, A type influenza virus; conditions: Influenza A virus, H3N2; read-out: EC50
[1] = CC50 B/Florida/04/2006, cytotoxicity in the B/Florida/04/2006 assay
[2] = CC50, third EC50/CC50 column pair (c7), beside the EC50 of c6

Question: Which melting point does the source give for `c1ccc(-c2cccc(CSc3nnc(Cn4cc(-c5ccccc5)cn4)o3)c2)cc1` here?
Answer: The melting point was 74.1 °C.

Question: For `[O-][S+](Cc1ccccc1-c1ccccc1)c1nnc(Cc2ccc(Br)cc2)o1` (stereo not shown) [Compound 59, 2-(([1,1′-biphenyl]-2-ylmethyl)sulfinyl)-5-(4-bromobenzyl)-1,3,4-oxadiazole], which CC50 (in vitro; [1]) is on record?
Answer: The CC50 was over 50 µM.

Question: Which CC50 (in vitro; [1]) does the source give for `CN(c1ccc(Br)cc1)c1nnc(SCc2ccccc2-c2ccccc2)o1` [Compound 65, 5-(([1,1′-biphenyl]-2-ylmethyl)thio)-N-(4-bromophenyl)-N-methyl-1,3,4-oxadiazol-2-amine] here?
Answer: Its CC50 is over 50 µM.

Question: For `CSc1nnc(Cc2ccccc2)o1` [Compound 80, 2-benzyl-5-(methylthio)-1,3,4-oxadiazole], which CC50 (in vitro; [1]) is on record?
Answer: The CC50 was over 50 µM.

Question: With `Brc1ccc(Cc2nnc(-c3ccc4ccccc4c3)o2)cc1` [Compound 98, 2-(4-bromobenzyl)-5-(naphthalen-2-yl)-1,3,4-oxadiazole] as the molecule, how does the CC50 (in vitro; CC50, beside the EC50 of c2) read?
Answer: The CC50 was over 50 µM.

Question: And the CC50 (in vitro; CC50, beside the EC50 of c4)?
Answer: Its CC50 is over 50 µM.

Question: And the CC50 (in vitro; [2])?
Answer: Its CC50 is over 50 µM.

Question: For `Cc1ccccc1CSc1ncc(CNc2ccc(Br)cc2)o1` [Compound 99, 4-bromo-N-((2-((2-methylbenzyl)thio)oxazol-5-yl)methyl)aniline], which CC50 (in vitro; CC50, beside the EC50 of c2) is on record?
Answer: The CC50 was over 50 µM.

Question: And the CC50 (in vitro; CC50, beside the EC50 of c4)?
Answer: The CC50 was over 50 µM.

Question: What about the CC50 (in vitro; [2]) of the same molecule?
Answer: The CC50 was over 50 µM.

Question: What does the source list for `CC(C)c1ccc(Cc2nnc(SCc3ccccc3-c3ccccc3)o2)cc1` [Compound 107, 2-(([1,1′-biphenyl]-2-ylmethyl)thio)-5-(4-isopropylbenzyl)-1,3,4-oxadiazole]?
Answer: EC50 (A/Perth/16/2009 (H3N2)): 20.6 µM; CC50 (in vitro; CC50, beside the EC50 of c2): > 50 µM; CC50 (in vitro; CC50, beside the EC50 of c4): > 50 µM; CC50 (in vitro; [2]): > 50 µM

Question: Which EC50 (A/Perth/16/2009 (H3N2)) does the source give for `Cc1ccccc1CCc1nnc(Cc2ccc(F)c(Cl)c2)o1` [Compound 108, 2-(3-chloro-4-fluorobenzyl)-5-(2-methylphenethyl)-1,3,4-oxadiazole] here?
Answer: The EC50 was over 50 µM.

Question: And the CC50 (in vitro; CC50, beside the EC50 of c2)?
Answer: The CC50 was over 50 µM.

Question: What about the CC50 (in vitro; CC50, beside the EC50 of c4) of the same molecule?
Answer: Its CC50 is over 50 µM.

Question: What about the CC50 (in vitro; [2]) of the same molecule?
Answer: Its CC50 is over 50 µM.

Question: Which results are given for `CC(C)c1ccccc1/C=C/c1nnc(Cc2ccc(-c3ccccc3)cc2)o1` [Compound 142, 2-([1,1′-biphenyl]-4-ylmethyl)-5-(2-isopropylstyryl)-1,3,4-oxadiazole]?
Answer: CC50 (in vitro; CC50, beside the EC50 of c2): > 50 µM; CC50 (in vitro; CC50, beside the EC50 of c4): > 50 µM; CC50 (in vitro; [2]): > 50 µM

Question: With `Fc1ccc(Oc2ccccc2/C=C/c2nnc(Cc3ccc(Br)cc3)o2)cc1` [Compound 155, 2-(4-bromobenzyl)-5-(2-(4-fluorophenoxy)styryl)-1,3,4-oxadiazole] as the molecule, how does the CC50 (in vitro; CC50, beside the EC50 of c2) read?
Answer: Its CC50 is over 50 µM.

Question: And the CC50 (in vitro; CC50, beside the EC50 of c4)?
Answer: Its CC50 is over 50 µM.

Question: And the CC50 (in vitro; [2])?
Answer: Its CC50 is over 50 µM.

Question: For `Cc1cc(F)ccc1/C=C/c1nnc(Cc2cccc(Br)c2)o1` [Compound 186, 2-(3-bromobenzyl)-5-(4-fluoro-2-methylstyryl)-1,3,4-oxadiazole], which CC50 (in vitro; CC50, beside the EC50 of c2) is on record?
Answer: The CC50 was over 50 µM.

Question: And the CC50 (in vitro; CC50, beside the EC50 of c4)?
Answer: Its CC50 is over 50 µM.

Question: And the CC50 (in vitro; [2])?
Answer: Its CC50 is over 50 µM.

Question: Which CC50 (in vitro; CC50, beside the EC50 of c2) does the source give for `CC(C)c1ccccc1/C=C/c1nnc(Cc2ccccc2)o1` [Compound 196, 2-benzyl-5-(2-isopropylstyryl)-1,3,4-oxadiazole] here?
Answer: The CC50 was over 50 µM.

Question: And the CC50 (in vitro; CC50, beside the EC50 of c4)?
Answer: Its CC50 is over 50 µM.

Question: And the CC50 (in vitro; [2])?
Answer: The CC50 was over 50 µM.

Question: For `Cc1nc2ccccc2n1Cc1nnc(/C=C/c2ccc(F)cc2Cl)o1` [Compound 203, (E)-2-(2-chloro-4-fluorostyryl)-5-((2-methyl-1H-benzo[d]imidazol-1-yl)methyl)-1,3,4-oxadiazole], which EC50 (A/Perth/16/2009 (H3N2)) is on record?
Answer: Its EC50 is 15.4 µM.

Question: And the CC50 (in vitro; CC50, beside the EC50 of c2)?
Answer: Its CC50 is over 50 µM.

Question: And the CC50 (in vitro; CC50, beside the EC50 of c4)?
Answer: The CC50 was over 50 µM.

Question: And the CC50 (in vitro; [2])?
Answer: The CC50 was over 50 µM.

Question: With `Cc1cccc(Cc2nnc(/C=C/c3ccc(F)cc3Cl)o2)c1` [Compound 211, 2-(2-chloro-4-fluorostyryl)-5-(3-methylbenzyl)-1,3,4-oxadiazole] as the molecule, how does the melting point read?
Answer: The melting point was 100.5 °C.

Question: With `Cn1cc(Cc2nnc(/C=C/c3ccc(F)cc3Cl)o2)c2ccccc21` [Compound 213, 2-(2-chloro-4-fluorostyryl)-5-((1-methyl-1H-indol-3-yl)methyl)-1,3,4-oxadiazole] as the molecule, how does the melting point read?
Answer: Its melting point is 148.1 °C.

Question: Which melting point does the source give for `Fc1ccc(/C=C/c2nnc(Cc3cccc(Br)c3)o2)c(Br)c1` [Compound 215, 2-(2-bromo-4-fluorostyryl)-5-(3-bromobenzyl)-1,3,4-oxadiazole] here?
Answer: The melting point was 129.5 °C.

Question: Which melting point does the source give for `CN(C)c1cccc(Cc2nnc(/C=C/c3ccc(F)cc3Cl)o2)c1` [Compound 217, 3-((5-(2-chloro-4-fluorostyryl)-1,3,4-oxadiazol-2-yl)methyl)-N,N-dimethylaniline] here?
Answer: The melting point was 134.2 °C.

Question: For `Oc1ccccc1/C=C/c1nnc(Cc2cccc(Br)c2)o1` [Compound 218, 2-(2-(5-(3-bromobenzyl)-1,3,4-oxadiazol-2-yl)vinyl)phenol], which melting point is on record?
Answer: Its melting point is 179.9 °C.

Question: For `Fc1ccc(/C=C/c2nnc(Cc3cccc(Cl)n3)o2)c(Cl)c1` [Compound 219, 2-(2-chloro-4-fluorostyryl)-5-((6-chloropyridin-2-yl)methyl)-1,3,4-oxadiazole], which melting point is on record?
Answer: The melting point was 145.2 °C.

Question: Which melting point does the source give for `Cc1cccc(Cc2nnc(/C=C/c3ccc(F)cc3Cl)o2)c1C` [Compound 221, 2-(2-chloro-4-fluorostyryl)-5-(2,3-dimethylbenzyl)-1,3,4-oxadiazole] here?
Answer: The melting point was 139.3 °C.

Question: With `Fc1ccc(/C=C/c2nnc(Cc3ccccc3Br)o2)c(Cl)c1` [Compound 222, 2-(2-bromobenzyl)-5-(2-chloro-4-fluorostyryl)-1,3,4-oxadiazole] as the molecule, how does the melting point read?
Answer: The melting point was 155.2 °C.

Question: For `Fc1ccc(/C=C/c2nnc(CCc3cccc(Br)c3)o2)c(Cl)c1` [Compound 223, 2-(3-bromophenethyl)-5-(2-chloro-4-fluorostyryl)-1,3,4-oxadiazole], which melting point is on record?
Answer: Its melting point is 108.7 °C.

Question: With `Clc1ncccc1/C=C/c1nnc(Cc2cccc(Br)c2)o1` [Compound 225, 2-(3-bromobenzyl)-5-(2-(2-chloropyridin-3-yl)vinyl)-1,3,4-oxadiazole] as the molecule, how does the melting point read?
Answer: Its melting point is 162.5 °C.

Question: Which melting point does the source give for `Fc1cccc(Cc2nnc(/C=C/c3ccc(F)cc3Cl)o2)c1` [Compound 226, 2-(2-chloro-4-fluorostyryl)-5-(3-fluorobenzyl)-1,3,4-oxadiazole] here?
Answer: Its melting point is 132.5 °C.

Question: For `Fc1ccc(/C=C/c2nnc(Cc3cccc4cccnc34)o2)c(Cl)c1` [Compound 236, 2-(2-chloro-4-fluorostyryl)-5-(quinolin-8-ylmethyl)-1,3,4-oxadiazole], which melting point is on record?
Answer: The melting point was 171.9 °C.

Question: With `Fc1ccc(/C=C/c2nnc(Cc3nccc4ccccc34)o2)c(Cl)c1` [Compound 237, 2-(2-chloro-4-fluorostyryl)-5-(isoquinolin-1-ylmethyl)-1,3,4-oxadiazole] as the molecule, how does the melting point read?
Answer: The melting point was 171.4 °C.

Question: Which melting point does the source give for `Fc1ccc(/C=C/c2nnc(Cc3cncc4ccccc34)o2)c(Cl)c1` [Compound 238, 2-(2-chloro-4-fluorostyryl)-5-(isoquinolin-4-ylmethyl)-1,3,4-oxadiazole] here?
Answer: Its melting point is 171.3 °C.

Question: For `COC(=O)c1ccccc1/C=C/c1nnc(Cc2cccc(Br)c2)o1` [Compound 242, methyl-2-(2-(5-(3-bromobenzyl)-1,3,4-oxadiazol-2-yl)vinyl)benzoate], which melting point is on record?
Answer: Its melting point is 131.1 °C.

Question: For `O=C(O)c1ccccc1/C=C/c1nnc(Cc2cccc(Br)c2)o1` [Compound 243, 2-(2-(5-(3-bromobenzyl)-1,3,4-oxadiazol-2-yl)vinyl)benzoic acid], which melting point is on record?
Answer: Its melting point is 167.7 °C.

Question: For `O=C(Nc1ccc(F)cc1Cl)c1nnc(Cc2cccc(Br)c2)o1` [Compound 244, 5-(3-bromobenzyl)-N-(2-chloro-4-fluorophenyl)-1,3,4-oxadiazole-2-carboxamide], which melting point is on record?
Answer: Its melting point is 165.8 °C.

Question: For `Fc1cc(F)c(/C=C/c2nnc(Cc3cccc(Br)c3)o2)c(Cl)c1` [Compound 245, 2-(3-bromobenzyl)-5-(2-chloro-4,6-difluorostyryl)-1,3,4-oxadiazole], which melting point is on record?
Answer: Its melting point is 112 °C.

Question: With `O=C(Nc1cccc(Br)c1)c1nnc(/C=C/c2ccc(F)cc2Cl)o1` [Compound 253, N-(3-bromophenyl)-5-(2-chloro-4-fluorostyryl)-1,3,4-oxadiazole-2-carboxamide] as the molecule, how does the melting point read?
Answer: Its melting point is 254.2 °C.

Question: For `Cc1cc(F)cc(Cc2nnc(/C=C/c3ccc(F)cc3Cl)o2)c1` [Compound 255, 2-(2-chloro-4-fluorostyryl)-5-(3-fluoro-5-methylbenzyl)-1,3,4-oxadiazole], which melting point is on record?
Answer: Its melting point is 117 °C.

Question: For `FC(F)(F)Oc1ccccc1/C=C/c1nnc(Cc2cccc(Br)c2)o1` [Compound 256, 2-(3-bromobenzyl)-5-(2-(trifluoromethoxy)styryl)-1,3,4-oxadiazole], which melting point is on record?
Answer: The melting point was 103.6 °C.

Question: With `Fc1ccc(/C=C/c2nnc(Cc3cc(Br)ccc3F)o2)c(Cl)c1` [Compound 258, 2-(5-bromo-2-fluorobenzyl)-5-(2-chloro-4-fluorostyryl)-1,3,4-oxadiazole] as the molecule, how does the melting point read?
Answer: Its melting point is 156.6 °C.

Question: With `Cc1ccc(Cc2nnc(/C=C/c3ccc(F)cc3F)o2)cc1Br` [Compound 262, 2-(3-bromo-4-methylbenzyl)-5-(2,4-difluorostyryl)-1,3,4-oxadiazole] as the molecule, how does the melting point read?
Answer: Its melting point is 132 °C.

Question: For `Fc1ccc(/C=C/c2nnc(Cc3ccc(F)c(Br)c3)o2)c(F)c1` [Compound 263, 2-(3-bromo-4-fluorobenzyl)-5-(2,4-difluorostyryl)-1,3,4-oxadiazole], which melting point is on record?
Answer: Its melting point is 115 °C.

Question: For `Fc1ccc(/C=C/c2nnc(Cc3cccc(Br)c3)o2)c(C(F)(F)F)c1` [Compound 264, 2-(3-bromobenzyl)-5-(4-fluoro-2-(trifluoromethyl)styryl)-1,3,4-oxadiazole], which melting point is on record?
Answer: The melting point was 137.3 °C.

Question: For `Cc1ccc(Cc2nnc(/C=C/c3ccc(F)cc3Br)o2)cc1Br` [Compound 265, 2-(2-bromo-4-fluorostyryl)-5-(3-bromo-4-methylbenzyl)-1,3,4-oxadiazole], which melting point is on record?
Answer: The melting point was 152.6 °C.

Question: With `Fc1ccc(/C=C/c2nnc(Cc3ccc(F)c(Br)c3)o2)c(Br)c1` [Compound 266, 2-(3-bromo-4-fluorobenzyl)-5-(2-bromo-4-fluorostyryl)-1,3,4-oxadiazole] as the molecule, how does the melting point read?
Answer: The melting point was 124.9 °C.

Question: For `Fc1ccc(/C=C/c2nnc(Cc3cccc(C4CC4)c3)o2)c(Cl)c1` [Compound 267, 2-(2-chloro-4-fluorostyryl)-5-(3-cyclopropylbenzyl)-1,3,4-oxadiazole], which melting point is on record?
Answer: The melting point was 110.2 °C.

Question: With `Fc1cccc(/C=C/c2nnc(Cc3cccc(Br)c3)o2)c1F` [Compound 280, 2-(3-bromobenzyl)-5-(2,3-difluorostyryl)-1,3,4-oxadiazole] as the molecule, how does the melting point read?
Answer: The melting point was 97.4 °C.

Question: For `FC(F)(F)c1ccccc1/C=C/c1nnc(Cc2cccc(Br)c2)o1` [Compound 281, 2-(3-bromobenzyl)-5-(2-(trifluoromethyl)styryl)-1,3,4-oxadiazole], which melting point is on record?
Answer: Its melting point is 107.2 °C.
